The values below come from PMC11947183 (Communications Biology, 2025).

One experiment relates to MjavOBP1. It is filed as binding, Manis javanica. The settings on record: for Kd: read-out: K d (competitive binding), pH 7.4.
The next experiment has as its system MjavOBP3. On the set-up: species or system Manis javanica. The settings on record: read-out: IC50 (competitive binding); pH 7.4.
A further experiment concerns the target MjavOBP2. On the set-up: species or system Manis javanica. The settings on record: read-out: K d (competitive binding); pH 7.4.

Take `O=C(O)CCc1ccccc1` [3-phenylpropionic acid, 3-Phenylpropionic acid]: the “binding to MjavOBP1 (in words)” value in the experiment with MjavOBP1 is “bound weakly”.

Regarding `CCCCCC=O` [hexanal, Hexanal], the half-maximal inhibitory concentration (IC50) with MjavOBP3 is above 2.23 µM. For `Cc1c[nH]c2ccccc12` [skatole, 3-methylindole], at MjavOBP2, the Kd was found to be 40.8 ± 8.93 µM. Take `CCCCCCCC1CCCC(=O)O1` (stereo not drawn) [δ-dodecalactone, δ-Dodecalactone]: the Kd at MjavOBP1 came out at 38.7 ± 2.04 µM. As for `CC(C)=CCCC(C)=CC=O` (mixture of isomers) [citral, Citral], in the experiment on MjavOBP1, the “binding to MjavOBP1 (in words)” value is reported as “bound weakly”. On to `C=CC(=C)CC/C=C(\C)CCC=C(C)C` [β-farnesene], for which the IC50 in the experiment on MjavOBP3 is above 2.23 µM.

In the case of `CCCCCCCCCC(C)=O` [2-undecanone, 2-Undecanone], the Kd amounted to 54.5 ± 10.8 µM at MjavOBP2 and 56.6 ± 4.2 µM at MjavOBP1.

As to `CCCCCCCCC(=O)CC` [3-undecanone, 3-Undecanone], the half-maximal inhibitory concentration (IC50) with MjavOBP3 is above 2.23 µM.
